Like-named read-outs stand apart in the source and are kept apart here.
Biological target: T1, human GLP-1R (Homo sapiens, UniProt P43220)
T1 construct: host or cells: HEK293
Experiment: GLP-1R cAMP assay (Example B1a, HTRF, 30 min at room temperature)
Format: cell-based
Settings: for EC50 Ratio: potency ratio of stereoisomer pair (less potent / more potent isomer); for potency: bridge atoms configured out of the plane or toward the reader
Outline: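 Competitive HTRF read-out of cAMP after 30 min room-temperature stimulation, BETP absent, of human GLP-1R-HEK293 cells (1,000/well) in HEPES buffer with 500 μM IBMX and 0.1% BSA. Activation normalised to GLP-1(7-37) positive control. EC50 from 4-parameter non-linear regression.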

[1] = cAMP accumulation in HEK293 expressing human GLP-1R, no BETP, 30 min room temperature (Method B1a, compounds ID 1-609), Table 1, read-out: EC50
[2] = Table 1d, stereoisomer pairs, read-out: EC50
[3] = text to Table 1d, bridge atoms configured into the plane or away from the reader, read-out: potency (EC50)

T1 sequence (P43220 24-463): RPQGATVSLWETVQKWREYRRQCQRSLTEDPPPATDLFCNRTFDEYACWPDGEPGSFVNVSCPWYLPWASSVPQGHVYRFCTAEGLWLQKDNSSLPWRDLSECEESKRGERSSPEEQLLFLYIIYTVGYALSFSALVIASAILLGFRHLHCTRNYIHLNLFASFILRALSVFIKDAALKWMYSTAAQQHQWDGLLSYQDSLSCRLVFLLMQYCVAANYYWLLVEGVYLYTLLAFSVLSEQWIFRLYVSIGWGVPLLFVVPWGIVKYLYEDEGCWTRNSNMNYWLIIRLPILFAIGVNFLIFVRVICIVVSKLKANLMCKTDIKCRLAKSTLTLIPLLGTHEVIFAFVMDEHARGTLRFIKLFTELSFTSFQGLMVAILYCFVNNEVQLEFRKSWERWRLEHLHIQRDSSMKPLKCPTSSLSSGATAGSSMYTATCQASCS

Row | EC50 [1] [nM] | SMILES | other results
1 | 134 | Cc1cc(-n2nc3c(c2-n2ccn(-c4ccc5c(cnn5C)c4F)c2=O)[C@@H]2CCC[C@H](C3)N2C(=O)c2cc3cc([C@H]4CCOC5(CC5)C4)ccc3n2[C@@]2(c3noc(=O)[nH]3)C[C@@H]2C)cc(C)c1F [Compound 509, 3-((1S,2S)-1-(2-((4S,8R)-3-(3-(4-fluoro-1-methyl-1H-indazol-5-yl)-2-oxo-2,3-dihydro-1H-imidazol-1-yl)-2-(4-fluoro-3,5-dimethylphenyl)-4,5,6,7,8,9-hexahydro-2H-4,8-epiminocycloocta [c]pyrazole-10-carbonyl)-5-((S)-4-oxaspiro[2.5]octan-7-yl)-1H-indol-1-yl)-2-methylcyclopropyl)-1,2,4-oxadiazol-5 (4H)-one] | 
2 | ≥ 10000 | Cc1cc(-n2nc3c(c2-n2ccn(-c4ccc5c(cnn5C)c4F)c2=O)[C@@H]2CC[C@H](C3)N2C(=O)c2cc3cc(N4CC(C)(C)C=CC4=O)ccc3n2[C@@]2(c3noc(=O)[nH]3)C[C@@H]2C)cc(C)c1F [Compound 510] | 
3 | 588 | Cc1cc(-n2nc3c(c2-n2ccn(-c4ccc5c(cnn5C)c4F)c2=O)C2CCC([C@H]3F)N2C(=O)c2cc3cc([C@H]4CCOC(C)(C)C4)ccc3n2[C@@]2(c3noc(=O)[nH]3)C[C@@H]2C)cc(C)c1F (stereo partly drawn) [Compound 511, 3-[(1S,2S)-1-[5-[(4S)-2,2-dimethyltetrahydropyran-4-yl]-2-[(7R)-7-fluoro-4-(4-fluoro-3,5-dimethyl-phenyl)-3-[3-(4-fluoro-1-methyl-indazol-5-yl)-2-oxo-imidazol-1-yl]-4,5,11-triazatricyclo[6.2.1.02,6]undeca-2,5-diene-11-carbonyl]indol-1-yl]-2-methyl-cyclopropyl]-4H-1,2,4-oxadiazol-5-one] | 
4 | 73.5 | Cc1cc(-n2nc3c(c2-n2ccn(-c4ccc5c(cnn5C)c4F)c2=O)[C@H](C)N(C(=O)c2cc4cc([C@H]5CCOC(C)(C)C5)ccc4n2[C@@]2(c4noc(=O)[nH]4)C[C@@H]2C)CCC3)cc(C)c1F [Compound 518, 3-[(1S,2S)-1-[5-[(4S)-2,2-dimethyltetrahydropyran-4-yl]-2-[(4S)-2-(4-fluoro-3,5-dimethyl-phenyl)-3-[3-(4-fluoro-1-methyl-indazol-5-yl)-2-oxo-imidazol-1-yl]-4-methyl-4,6,7,8-tetrahydropyrazolo[4,3-c]azepine-5-carbonyl]indol-1-yl]-2-methyl-cyclopropyl]-4H-1,2,4-oxadiazol-5-one] | 
5 | ≥ 10000 | Cc1cc(-n2nc3c(c2-n2ccn(-c4ccc5c(cnn5C)c4F)c2=O)[C@@H]2CC[C@H](C3)N2C(=O)c2cc3cc([C@H]4CCOC5(CC5)C4)ccc3n2[C@]2(c3noc(=O)[nH]3)C[C@H]2C)cc(C)c1F [Compound 519, 3-[(1R,2R)-1-[2-[(1S,8R)-4-(4-fluoro-3,5-dimethyl-phenyl)-3-[3-(4-fluoro-1-methyl-indazol-5-yl)-2-oxo-imidazol-1-yl]-4,5,11-triazatricyclo[6.2.1.02,6]undeca-2,5-diene-11-carbonyl]-5-[(7S)-4-oxaspiro[2.5]octan-7-yl]indol-1-yl]-2-methyl-cyclopropyl]-4H-1,2,4-oxadiazol-5-one] | 
6 | ≥ 10000 | Cc1cc(-n2nc3c(c2-n2ccn(-c4ccc5c(cnn5C)c4F)c2=O)[C@H]2CC[C@@H](C3)N2C(=O)c2cc3cc([C@H]4CCOC5(CC5)C4)ccc3n2[C@]2(c3noc(=O)[nH]3)C[C@H]2C)cc(C)c1F [Compound 520, 3-[(1R,2R)-1-[2-[(1R,8S)-4-(4-fluoro-3,5-dimethyl-phenyl)-3-[3-(4-fluoro-1-methyl-indazol-5-yl)-2-oxo-imidazol-1-yl]-4,5,11-triazatricyclo[6.2.1.02,6]undeca-2,5-diene-11-carbonyl]-5-[(7S)-4-oxaspiro[2.5]octan-7-yl]indol-1-yl]-2-methyl-cyclopropyl]-4H-1,2,4-oxadiazol-5-one] | 
7 | 197 | Cc1cc(-n2nc3c(c2-n2ccn(-c4ccc5cnncc5c4F)c2=O)CN(C(=O)c2cc4cc([C@H]5CCOC(C)(C)C5)ccc4n2[C@@]2(c4noc(=O)[nH]4)C[C@@H]2C)CCC3)cc(C)c1F [Compound 521, 3-[(1S,2S)-1-[5-[(4S)-2,2-dimethyltetrahydropyran-4-yl]-2-[2-(4-fluoro-3,5-dimethyl-phenyl)-3-[3-(5-fluorophthalazin-6-yl)-2-oxo-imidazol-1-yl]-4,6,7,8-tetrahydropyrazolo[4,3-c]azepine-5-carbonyl]indol-1-yl]-2-methyl-cyclopropyl]-4H-1,2,4-oxadiazol-5-one] | 
8 | ≥ 10000 | Cc1cc(-n2nc3c(c2-n2ccn(-c4ccc5c(cnn5C)c4F)c2=O)C2CCC(CC3)N2C(=O)c2cc3cc([C@H]4CCOC(C)(C)C4)ccc3n2[C@@]2(c3noc(=O)[nH]3)C[C@@H]2C)cc(C)c1F (stereo partly drawn) [Compound 522, 3-[(1S,2S)-1-[5-[(4S)-2,2-dimethyltetrahydropyran-4-yl]-2-[4-(4-fluoro-3,5-dimethyl-phenyl)-3-[3-(4-fluoro-1-methyl-indazol-5-yl)-2-oxo-imidazol-1-yl]-4,5,12-triazatricyclo[7.2.1.02,6]dodeca-2,5-diene-12-carbonyl]indol-1-yl]-2-methyl-cyclopropyl]-4H-1,2,4-oxadiazol-5-one] | 

The next lines start with the compound.

Row | SMILES | EC50 [1] [nM] | other results
9 | Cc1cc(-n2nc3c(c2-n2ccn(-c4ccc5c(cnn5C)c4F)c2=O)[C@@H]2CC[C@H]([C@H]3F)N2C(=O)c2cc3cc([C@H]4CCOC(C)(C)C4)ccc3n2[C@@]2(c3noc(=O)[nH]3)C[C@@H]2C)cc(C)c1F [Compound 512, 3-[(1S,2S)-1-[5-[(4S)-2,2-dimethyltetrahydropyran-4-yl]-2-[(1S,7R,8R)-7-fluoro-4-(4-fluoro-3,5-dimethyl-phenyl)-3-[3-(4-fluoro-1-methyl-indazol-5-yl)-2-oxo-imidazol-1-yl]-4,5,11-triazatricyclo[6.2.1.02,6]undeca-2,5-diene-11-carbonyl]indol-1-yl]-2-methyl-cyclopropyl]-4H-1,2,4-oxadiazol-5-one] | 226 | EC50 Ratio (Table 1d): >83; EC50 [2]: 226 nM; EC50 [3]: < 1000 nM
10 | Cc1cc(-n2nc3c(c2-n2ccn(-c4ccc5c(cnn5C)c4F)c2=O)[C@H]2CC[C@@H]([C@@H]3F)N2C(=O)c2cc3cc([C@H]4CCOC(C)(C)C4)ccc3n2[C@@]2(c3noc(=O)[nH]3)C[C@@H]2C)cc(C)c1F [Compound 513, 3-[(1S,2S)-1-[5-[(4S)-2,2-dimethyltetrahydropyran-4-yl]-2-[(1R,7S,8S)-7-fluoro-4-(4-fluoro-3,5-dimethyl-phenyl)-3-[3-(4-fluoro-1-methyl-indazol-5-yl)-2-oxo-imidazol-1-yl]-4,5,11-triazatricyclo[6.2.1.02,6]undeca-2,5-diene-11-carbonyl]indol-1-yl]-2-methyl-cyclopropyl]-4H-1,2,4-oxadiazol-5-one] | ≥ 10000 | potency (text to Table 1d): little or no potency
11 | Cc1cc(-n2nc3c(c2-n2ccn(-c4ccc5c(cnn5C)c4F)c2=O)[C@H]2CC[C@@H]([C@H]3F)N2C(=O)c2cc3cc([C@H]4CCOC(C)(C)C4)ccc3n2[C@@]2(c3noc(=O)[nH]3)C[C@@H]2C)cc(C)c1F [Compound 514, 3-[(1S,2S)-1-[5-[(4S)-2,2-dimethyltetrahydropyran-4-yl]-2-[(1R,7R,8S)-7-fluoro-4-(4-fluoro-3,5-dimethyl-phenyl)-3-[3-(4-fluoro-1-methyl-indazol-5-yl)-2-oxo-imidazol-1-yl]-4,5,11-triazatricyclo[6.2.1.02,6]undeca-2,5-diene-11-carbonyl]indol-1-yl]-2-methyl-cyclopropyl]-4H-1,2,4-oxadiazol-5-one] | ≥ 10000 | potency (text to Table 1d): little or no potency
12 | Cc1cc(-n2nc3c(c2-n2ccn(-c4ccc5c(cnn5C)c4F)c2=O)[C@@H]2CC[C@H]([C@@H]3F)N2C(=O)c2cc3cc([C@H]4CCOC(C)(C)C4)ccc3n2[C@@]2(c3noc(=O)[nH]3)C[C@@H]2C)cc(C)c1F [Compound 515, 3-[(1S,2S)-1-[5-[(4S)-2,2-dimethyltetrahydropyran-4-yl]-2-[(1S,7S,8R)-7-fluoro-4-(4-fluoro-3,5-dimethyl-phenyl)-3-[3-(4-fluoro-1-methyl-indazol-5-yl)-2-oxo-imidazol-1-yl]-4,5,11-triazatricyclo[6.2.1.02,6]undeca-2,5-diene-11-carbonyl]indol-1-yl]-2-methyl-cyclopropyl]-4H-1,2,4-oxadiazol-5-one] | 120 | EC50 Ratio (Table 1d): >44; EC50 [2]: 120 nM; EC50 [3]: < 1000 nM
13 | Cc1cc(-n2nc3c(c2-n2ccn(-c4ccc5c(cnn5C)c4F)c2=O)[C@@H]2CC[C@H](C3)N2C(=O)c2cc3cc([C@@H]4CCOC5(CC5)C4)ccc3n2[C@]2(c3noc(=O)[nH]3)C[C@H]2C)cc(C)c1F [Compound 516, 3-[(1R,2R)-1-[2-[(1S,8R)-4-(4-fluoro-3,5-dimethyl-phenyl)-3-[3-(4-fluoro-1-methyl-indazol-5-yl)-2-oxo-imidazol-1-yl]-4,5,11-triazatricyclo[6.2.1.02,6]undeca-2,5-diene-11-carbonyl]-5-[(7R)-4-oxaspiro[2.5]octan-7-yl]indol-1-yl]-2-methyl-cyclopropyl]-4H-1,2,4-oxadiazol-5-one] | ≥ 10000 | 
14 | Cc1cc(-n2nc3c(c2-n2ccn(-c4ccc5c(cnn5C)c4F)c2=O)[C@H]2CC[C@@H](C3)N2C(=O)c2cc3cc([C@@H]4CCOC5(CC5)C4)ccc3n2[C@]2(c3noc(=O)[nH]3)C[C@H]2C)cc(C)c1F [Compound 517, 3-[(1R,2R)-1-[2-[(1R,8S)-4-(4-fluoro-3,5-dimethyl-phenyl)-3-[3-(4-fluoro-1-methyl-indazol-5-yl)-2-oxo-imidazol-1-yl]-4,5,11-triazatricyclo[6.2.1.02,6]undeca-2,5-diene-11-carbonyl]-5-[(7R)-4-oxaspiro[2.5]octan-7-yl]indol-1-yl]-2-methyl-cyclopropyl]-4H-1,2,4-oxadiazol-5-one] | ≥ 10000 | 

— patent US12617783B2, “Heterocyclic GLP-1R agonists” (BIOMEA FUSION, INC., priority 2024, dated 2026)
